Laboratory results: patent US20180369203A1, “METHODS OF TREATING CANCER BY ADMINISTERING A MEK INHIBITOR IN COMBINATION WITH A PROTEASOME INHIBITOR” (The Jackson Laboratory, priority 2015, published 2018)

Tests used:
A2058 cells [1] = experiment: Amyloid quantitation by ELISA in A2058 cells pre-incubated with ThT; format: cell-based, human; conditions: 10 μM ThT pre-incubation 6 hr, then inhibitors 24 hr
Protocol: (§1) FIGS. 5A-Y show MEK and proteasome inhibition provoke protein aggregation and amyloidogenesis. (A-B) WM115 cells treated with 20 nM AZD6244, 100 nM Bortezomib, or both for 24 hr were stained with Lys48-specific ubiquitin antibodies. Arrowheads mark ubiquitin-positive aggregates. Scale bar: 10 μm. Amounts of aggregates per cell were quantitated using ImageJ (median, n≥100, ANOVA). (C-F) Following transfection with polyQ79 plasmids alone or with both polyQ79 and HSF1^S326D plasmids for one day, HEK293T cells were treated with inhibitors as described in (A-B). Cells were either analyzed for aggregate size or stained with 10 μM ThT. (G) Treated tumor cell lines were stained with 10 μM ThT. Geometric means were used to calculate fold changes in ThT fluorescence intensity and the log 2(FC) values were presented as a heat map. […] Following treatments, AOs were quantitated by ELISA using A11 antibodies (mean±SD, n=3, ANOVA). (I) Intrinsic AOs were detected in human tumor cell lines (mean±SD, n=3, ANOVA). […] Amyloids were quantitated by ELISA (mean±SD, n=3, Student's t-test). […] AF formation was monitored by ThT binding (mean±SD, n=3, ANOVA). […] Amyloids were quantitated (mean±SD, n=3, Student's t-test). […] Viable cells were quantitated by CellTiter® blue (mean±SD, n=6, Student's t-test). […] Viable cells were quantitated (mean±SD, n=6, ANOVA). […]
To quantitate amyloid fibrils, detergent-insoluble proteins were extracted. […]

A2058 cells [2] = experiment: Viable A2058 cells by CellTiter Blue with amyloid blockers plus inhibitors; format: cell-based, human; conditions: 10 μM ThT pre-incubation 6 hr, then inhibitors 24 hr
Protocol: as §1
This figure is related to FIG. 5. […] (C) Quantitation of protein aggregate size. […]

Cc1ccc2c(c1)sc(-c1ccc(N(C)C)cc1)[n+]2C.[Cl-] [ThT, Thioflavin T]
amyloid induction by inhibitors (A2058 cells [1]): suppressed
improvement of cellular growth and survival (A2058 cells [2]): 50%
